The nature of data set [1]: Relaxivity (1.4 T) in MOPS and MOPS/CO3^2−. The settings on record: intermolecular series 5a-c, 37° C. It is filed as physicochemical. The protocol: While measurements of q indicate how well an agent can restrict water access to the GdIII center, the most important property for a bio-activated contrast agent is the change in relaxivity upon enzymatic cleavage (r1). To evaluate the signal change in the presence of CO32−, relaxivities of the intermolecular activated agents were measured in two different buffer conditions, the non-coordinating buffer MOPS and MOPS/CO32−.
T1 relaxation times were obtained for 5a-c (FIG. 13), and complexes 10a-d (FIG. 14), and 11 at 37° C. at 60 MHz (1.4 T) on a Bruker mq60 minispec spectrometer (Billerica, MA). Three 1 mM solutions of each complex were prepared in four different buffer conditions 1) 10 mm 3-(N-morpholino)propanesulfonic acid (MOPS), 100 mm NaCl, pH 7.4, 2) 10 mm MOPS, 24 mm NaHCO3, 100 mm NaCl, pH 7.4, 3) Dulbecco's Phosphate Buffer (DPBS) pH 7.3 Life Technologies, and 4) b-galactosidase enzyme assay buffer, 200 mm sodium phosphate, 100 mm bmercaptoethanol, 2 mm MgCl2, pH 7.3 (FIG. 15). Three sets of five serial dilutions (about 1 mm, 0.5 mm, 0.25 mm, 0.125 mm and 0.0625 mm) were prepared for each complex. T1 relaxation rates were measured using an inversion recovery pule sequence (t1_ir_mb) with a 10 ms first pulse separation, recycle delay and final pulse separation ≥5 T1. T1 relaxation rates were plotted as a function of GdIII concentrations as determined by ICP-MS, r1/r2 was obtained from linear fit of concentration vs. T1 as described in Equation (1).

Data set [2] concerns the target T1, β-galactosidase (Escherichia coli, UniProt P00722).
T1 construct: purchased Sigma Aldrich
It is filed as biochemical. The note with it: 25° C., TES buffer, 1 mM MgCl2, 150 mM NaCl; for Kcat: 420 nm; for Km: nitro-phenol absorbance 420 nm. Here is the method: Catalytic efficiencies for five substrates, 5a-c, ONPG, and PNPG were evaluated by UV-vis spectroscopy (Table 3). ONPG and PNPG are literature standards that were used to ensure the assay was performed adequately and to serve as benchmarks of activation kinetics in the absence of the GdIII chelate. […] Catalytic efficiency is directly related to the imaging window wherein activation to the r1, on state is competing with clearance.
Enzyme activation kinetics were determined by the method of initial rates for compounds 5a-c via the appearance of the nitrophenol byproduct of activation. The characteristic absorption was monitored at 420 nm. Concentrations of substrate used were 0, 0.05, 0.1, 0.12, 0.15, 0.3, 0.4, 0.5, 0.75, 1, and 2 mM. Each concentration was measured in triplicate and exact concentrations were measured by ICP-MS (see Table 2).

Data set [3] is described as follows: Terbium(III) luminescence: determination of q. The settings on record: for q (H2O): pure water; for τD2O: D2O; for τH2O: H2O. It is filed as physicochemical. The protocol: The q number in the absence and presence of CO32− was determined using TbIII analogues (5a′, 5b′, 5c′, and 11′). Given the similarities in chemistry amongst the lanthanides, TbIII luminescence is a convenient and established method for determining the coordination environment in corresponding GdIII chelates. The narrow […] emission at 543 nm and the relatively long lived 0.4 ms excited state lifetime for Tb(H2O)x facilitates accurate assessment of the inner-coordination sphere, differentiating between coordination of OH, OD, NH, and ND oscillators. 38 Luminescent decay curves were fit to the empirically derived Horrock's equation (Eq. 2). It was expected that the ortho position would have the lowest q in the presence of CO32−, creating a “dark” state with the lowest relaxivity.
The number of water molecules directly coordinated to the lanthanide center (q), was determined for each of the TbIII analogues 5a′-c′ (see Table 1), 10a′-d′ (Table 2), and 11′ in MilliQ water and MOPS/carbonate buffer (10 mm MOPS, 24 mm NaHCO3, pH 7.4).
The monoexponential fluorescence decay of an ≈1 mm solution of each complex was determined using a Hitachi F4500 fluorometer (Schaumburg, IL). An excitation wavelength of 308 nm and an emission wavelength of […] were used, and 25 scans were acquired and averaged for each solution. The averaged data was fit with a monoexponential decay function, and the time constant (t) for each solution was determined in triplicate. The fluorescence decay curves of the complexes were measured in both H2O and D2O, and in both buffer and deuterated buffer, obtained by lyophilizing and re-suspending the buffer in D2O three times (FIG. 17A-E). The q values were calculated using the empirically derived Horrock's equation for Tb(III) (Eq. 2): […]

Where [4] appears, read: Horrock's equation for TbIII, MOPS/CO32- buffer pH 7.4.
[5] abbreviates: Tb(III) analogues, emission 543 nm, ambient temperature.
Where [6] appears, read: deuterated MOPS/CO32- buffer pH 7.4.
Where [7] appears, read: 10a′-d′, Horrock's equation, MOPS/CO3^2− buffer pH 7.4.
Where [8] appears, read: 10a′-d′, MOPS/CO3^2− buffer pH 7.4.
Setting [9] is: 10a′-d′, deuterated MOPS/CO3^2− buffer pH 7.4.
Setting [10] is: Tb(III) analogues 10a′-d′, emission 543 nm.

Molecules are shown by their SMILES.

By Km is commonly meant the concentration of substrate that gives half-maximal velocity.

T1 sequence (P00722 2-1024): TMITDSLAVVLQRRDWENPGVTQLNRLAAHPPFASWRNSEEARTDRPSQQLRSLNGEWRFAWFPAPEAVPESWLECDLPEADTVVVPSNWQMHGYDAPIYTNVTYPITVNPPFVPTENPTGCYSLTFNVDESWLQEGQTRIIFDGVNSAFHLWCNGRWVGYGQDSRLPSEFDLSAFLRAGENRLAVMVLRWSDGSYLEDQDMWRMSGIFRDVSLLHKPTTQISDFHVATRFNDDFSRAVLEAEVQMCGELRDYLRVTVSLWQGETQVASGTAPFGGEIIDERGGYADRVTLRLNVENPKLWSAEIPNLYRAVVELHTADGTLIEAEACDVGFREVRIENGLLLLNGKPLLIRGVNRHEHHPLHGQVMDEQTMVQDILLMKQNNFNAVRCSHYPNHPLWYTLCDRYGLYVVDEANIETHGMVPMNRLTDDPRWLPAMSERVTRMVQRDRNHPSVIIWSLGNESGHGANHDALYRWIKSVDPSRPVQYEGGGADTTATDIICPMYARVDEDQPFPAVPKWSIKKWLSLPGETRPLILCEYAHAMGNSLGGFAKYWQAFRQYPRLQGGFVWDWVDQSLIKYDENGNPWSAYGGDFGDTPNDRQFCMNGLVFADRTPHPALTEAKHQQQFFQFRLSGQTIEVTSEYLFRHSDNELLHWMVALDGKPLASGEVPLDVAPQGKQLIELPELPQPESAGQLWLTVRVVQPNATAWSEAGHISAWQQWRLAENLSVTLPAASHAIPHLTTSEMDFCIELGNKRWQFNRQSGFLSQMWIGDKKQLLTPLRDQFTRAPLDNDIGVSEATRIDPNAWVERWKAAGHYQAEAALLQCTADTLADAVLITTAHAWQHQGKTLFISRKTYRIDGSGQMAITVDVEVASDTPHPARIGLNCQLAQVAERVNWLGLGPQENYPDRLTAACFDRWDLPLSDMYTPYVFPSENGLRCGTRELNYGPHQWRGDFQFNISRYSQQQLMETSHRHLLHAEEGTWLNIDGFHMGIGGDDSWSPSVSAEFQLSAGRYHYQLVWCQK

In the case of `O=C([O-])CN1CCN(CCNC(=O)OCc2cc([N+](=O)[O-])ccc2O[C@@H]2O[C@H](CO)[C@H](O)[C@H](O)[C@H]2O)CCN(CC(=O)[O-])CCN(CC(=O)[O-])CC1.[Gd+3]` [5a, Gadolinium(III)-1-(2-(2-(1-(4,7,10-triscarboxymethyl-(1,4,7,10tetraazacyclododecyl)))ethylcarbamoyloxymethyl)-4-nitrophenyl)-β-D-galactopyranose], the “Δr1 relative to the cleaved complex 11 (percent change in relaxivity, dark to bright)” value in data set [1] is reported as “negative”. In data set [2], the Kcat is reported as 637 +/− 21.9 S−1 and the Michaelis-Menten constant (Km) is 272 µM.

For `O=C([O-])CN1CCN(CCNC(=O)OCc2cc([N+](=O)[O-])ccc2O[C@@H]2O[C@H](CO)[C@H](O)[C@H](O)[C@H]2O)CCN(CC(=O)[O-])CCN(CC(=O)[O-])CC1.[Tb+3]` [5a′, Terbium(III)-1-(2-(2-(1-(4,7,10-triscarboxymethyl-(1,4,7,10tetraazacyclododecyl)))ethylcarbamoyloxymethyl)-4-nitrophenyl)-β-D-galactopyranose], the “q (buffer)” value in data set [3] (setting [4]) is given as 0.2. Also, the “q (H2O)” value in data set [3] (Horrock's equation for TbIII) was found to be 1.1. The τHbuf in data set [3] (MOPS/CO32- buffer pH 7.4) is recorded as 1.7(6) ms. In data set [3] (setting [5]), the τD2O is 2.2(3) ms and the τH2O is recorded as 1.2(8) ms. Also, in data set [3] (setting [6]), the τDbuf is on record as 2.2(0) ms.

With `O=C([O-])CN1CCN(CCNC(=O)OCc2ccc([N+](=O)[O-])c(O[C@@H]3O[C@H](CO)[C@H](O)[C@H](O)[C@H]3O)c2)CCN(CC(=O)[O-])CCN(CC(=O)[O-])CC1.[Gd+3]` [5b, Gadolinium(III)-1-(5-(2-(1-(4,7,10-triscarboxymethyl-(1,4,7,10tetraazacyclododecyl)))ethylcarbamoyloxymethyl)-2-nitrophenyl)-β-D-galactopyranose], in data set [1], the “Δr1 relative to the cleaved complex 11 (percent change in relaxivity, dark to bright)” value is 26%. Further, in data set [2], the Kcat is reported as 679 +/− 135.8 S−1 and the Michaelis constant (Km) stood at 791 µM.

Turning to `O=C([O-])CN1CCN(CCNC(=O)OCc2ccc([N+](=O)[O-])c(O[C@@H]3O[C@H](CO)[C@H](O)[C@H](O)[C@H]3O)c2)CCN(CC(=O)[O-])CCN(CC(=O)[O-])CC1.[Tb+3]` [5b′, Terbium(III)-1-(5-(2-(1-(4,7,10-triscarboxymethyl-(1,4,7,10tetraazacyclododecyl)))ethylcarbamoyloxymethyl)-2-nitrophenyl)-β-D-galactopyranose], the “q (buffer)” value in data set [3] (setting [4]) was found to be 0. In data set [3] (Horrock's equation for TbIII), the “q (H2O)” value was 0.4. Also, the τHbuf in data set [3] (MOPS/CO32- buffer pH 7.4) was 1.4(2) ms. In data set [3] (setting [5]), the τD2O was 1.6(6) ms and the τH2O is 1.3(0) ms. Moreover, in data set [3] (setting [6]), the τDbuf is 1.5(4) ms.

Take `O=C([O-])CN1CCN(CCNC(=O)OCc2ccc(O[C@@H]3O[C@H](CO)[C@H](O)[C@H](O)[C@H]3O)c([N+](=O)[O-])c2)CCN(CC(=O)[O-])CCN(CC(=O)[O-])CC1.[Tb+3]` [5c′, Terbium(III)-1-(4-(2-(1-(4,7,10-triscarboxymethyl-(1,4,7,10tetraazacyclododecyl)))ethylcarbamoyloxymethyl)-2-nitrophenyl)-β-D-galactopyranose]: the “q (buffer)” value in data set [3] (setting [4]) is 0. For the same compound, the “q (H2O)” value in data set [3] (Horrock's equation for TbIII) worked out at 0.7. For the same compound, the τHbuf in data set [3] (MOPS/CO32- buffer pH 7.4) was 1.0(2) ms. In data set [3] (setting [5]), the τD2O is 1.1(1) ms and the τH2O is 0.8(9) ms. The τDbuf in data set [3] (setting [6]) was 1.0(7) ms.

Take `CCOC(=O)CNc1cc(COC(=O)NCCN2CCN(CC(=O)[O-])CCN(CC(=O)[O-])CCN(CC(=O)[O-])CC2)ccc1O[C@@H]1O[C@H](CO)[C@H](O)[C@H](O)[C@H]1O.[Tb+3]` [10a′, Terbium(III)-1-(4-(2-(1-(4,7,10-triscarboxymethyl-(1,4,7,10tetraazacyclododecyl)))ethylcarbamoyloxymethyl)-2-((2-ethoxy-2-oxoethyl)amino)phenyl)-β-D-galactopyranose]: the “q (buffer)” value in data set [3] (setting [7]) turned out to be 0.3. Further, in data set [3] (10a′-d′, Horrock's equation), the “q (H2O)” value amounted to 1.3. In data set [3] (setting [8]), the τHbuf was 1.7(2) ms. For the same compound, the τDbuf in data set [3] (setting [9]) is on record as 2.1(8) ms. The τD2O in data set [3] (Tb(III) analogues 10a′-d′) was 2.1(0) ms. In addition, the τH2O in data set [3] (setting [10]) was 1.1(4) ms.

As to `CCOC(=O)CCCNc1cc(COC(=O)NCCN2CCN(CC(=O)[O-])CCN(CC(=O)[O-])CCN(CC(=O)[O-])CC2)ccc1O[C@@H]1O[C@H](CO)[C@H](O)[C@H](O)[C@H]1O.[Tb+3]` [10b′, Terbium(III)-1-(4-(2-(1-(4,7,10-triscarboxymethyl-(1,4,7,10tetraazacyclododecyl)))ethylcarbamoyloxymethyl)-2-((4-ethoxy-4-oxobutyl)amino)phenyl)-β-D-galactopyranose], the “q (buffer)” value in data set [3] (setting [7]) is 0. Besides, the “q (H2O)” value in data set [3] (10a′-d′, Horrock's equation) is recorded as 0.5. For the same compound, the τHbuf in data set [3] (setting [8]) was 1.8(9) ms. The τDbuf in data set [3] (setting [9]) is given as 1.8(8) ms. Also, in data set [3] (Tb(III) analogues 10a′-d′), the τD2O is listed as 2.2(6) ms. Besides, in data set [3] (setting [10]), the τH2O is 1.6(3) ms.

With `CCOC(=O)CCCCCNc1cc(COC(=O)NCCN2CCN(CC(=O)[O-])CCN(CC(=O)[O-])CCN(CC(=O)[O-])CC2)ccc1O[C@@H]1O[C@H](CO)[C@H](O)[C@H](O)[C@H]1O.[Tb+3]` [10c′, Terbium(III)-1-(4-(2-(1-(4,7,10-triscarboxymethyl-(1,4,7,10tetraazacyclododecyl)))ethylcarbamoyloxymethyl)-2-((6-ethoxy-6-oxohexyl)amino)phenyl)-β-D-galactopyranose], the “q (buffer)” value in data set [3] (setting [7]) is listed as 0.1. Besides, in data set [3] (10a′-d′, Horrock's equation), the “q (H2O)” value worked out at 0.1. In data set [3] (setting [8]), the τHbuf is given as 1.9(3) ms. In data set [3] (setting [9]), the τDbuf is on record as 2.2(6) ms. For the same compound, the τD2O in data set [3] (Tb(III) analogues 10a′-d′) is reported as 2.2(9) ms. Also, in data set [3] (setting [10]), the τH2O is 1.8(9) ms.

Consider `CCOC(=O)CCCCCCCNc1cc(COC(=O)NCCN2CCN(CC(=O)[O-])CCN(CC(=O)[O-])CCN(CC(=O)[O-])CC2)ccc1O[C@@H]1O[C@H](CO)[C@H](O)[C@H](O)[C@H]1O.[Tb+3]` [10d′, Terbium(III)-1-(4-(2-(1-(4,7,10-triscarboxymethyl-(1,4,7,10tetraazacyclododecyl)))ethylcarbamoyloxymethyl)-2-((8-ethoxy-8-oxooctyl)amino)phenyl)-β-D-galactopyranose], for which, in data set [3] (setting [7]), the “q (buffer)” value worked out at 0.1. The “q (H2O)” value in data set [3] (10a′-d′, Horrock's equation) stood at 0.1. Besides, in data set [3] (setting [8]), the τHbuf was 1.9(7) ms. For the same compound, the τDbuf in data set [3] (setting [9]) is 2.0(2) ms. Moreover, in data set [3] (Tb(III) analogues 10a′-d′), the τD2O is 2.2(6) ms. Also, in data set [3] (setting [10]), the τH2O is listed as 1.9(3) ms.

On to `O=[N+]([O-])c1ccccc1O[C@@H]1O[C@H](CO)[C@H](O)[C@H](O)[C@H]1O` [ONPG, ortho-nitrophyenyl-[…]-galactoside, reference compound], for which, in data set [2], the Kcat is listed as 600 +/− 29.7 S−1 and the Km stood at 120 µM.

`O=[N+]([O-])c1ccc(O[C@@H]2O[C@H](CO)[C@H](O)[C@H](O)[C@H]2O)cc1` [PNPG, para-nitrophyenyl-[…]-galactoside, reference compound]: in data set [2], the Kcat was 276 +/− 16.9 S−1 and the Km was determined as 61 µM.

These data come from patent US12508328B2, “Bio-activated reporters to visualize, in real time, specific gene therapy products” (Northwestern University, priority 2019, dated 2025).
